These results are taken from paper PMC4979471 (Cell Death Discovery, 2015).

Like-named read-outs stand apart in the source and are kept apart here.

Holding throughout (assay): Kinase selectivity, P33-radiolabeled assay
Holding throughout (type): biochemical
Common to all, as to details: 10 μM ATP

One assay deals with T1, c-MER (Homo sapiens, UniProt Q12866).
T1 construct: purchased Reaction Biology Corp
T1 sequence (Q12866 21-999): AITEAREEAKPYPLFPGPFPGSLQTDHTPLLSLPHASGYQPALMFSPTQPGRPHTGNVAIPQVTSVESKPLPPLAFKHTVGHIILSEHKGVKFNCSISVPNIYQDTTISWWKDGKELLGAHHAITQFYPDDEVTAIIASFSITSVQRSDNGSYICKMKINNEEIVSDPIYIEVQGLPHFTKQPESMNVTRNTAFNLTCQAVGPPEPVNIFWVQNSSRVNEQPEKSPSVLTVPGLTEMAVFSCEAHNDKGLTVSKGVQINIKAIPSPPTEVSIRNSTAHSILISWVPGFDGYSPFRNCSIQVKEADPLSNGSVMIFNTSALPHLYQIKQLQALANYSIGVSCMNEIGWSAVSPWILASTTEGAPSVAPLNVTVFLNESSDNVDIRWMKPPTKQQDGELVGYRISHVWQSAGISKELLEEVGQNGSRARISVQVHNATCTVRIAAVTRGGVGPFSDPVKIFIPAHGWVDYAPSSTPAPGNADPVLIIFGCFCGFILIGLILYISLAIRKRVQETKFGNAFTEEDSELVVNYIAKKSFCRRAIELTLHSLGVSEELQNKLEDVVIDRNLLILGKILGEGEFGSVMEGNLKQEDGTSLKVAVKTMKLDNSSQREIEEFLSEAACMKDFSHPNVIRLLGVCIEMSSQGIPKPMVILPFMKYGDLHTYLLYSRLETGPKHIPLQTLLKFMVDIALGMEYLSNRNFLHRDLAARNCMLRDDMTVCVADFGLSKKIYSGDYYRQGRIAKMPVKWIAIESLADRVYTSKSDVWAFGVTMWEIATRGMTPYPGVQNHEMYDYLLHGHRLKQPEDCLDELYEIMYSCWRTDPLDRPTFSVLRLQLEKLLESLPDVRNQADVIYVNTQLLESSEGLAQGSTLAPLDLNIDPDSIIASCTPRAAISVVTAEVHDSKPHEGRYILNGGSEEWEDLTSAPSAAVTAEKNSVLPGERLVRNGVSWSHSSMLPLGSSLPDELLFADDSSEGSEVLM
Put shortly: (§1)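 ATP at 10 μM; test article at 10 μM, single point, two replicates. Output is activity as % of DMSO.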

The next assay addresses T2, GRK5 (Homo sapiens, UniProt P34947).
T2 construct: purchased Reaction Biology Corp
The essentials: as §1

The next assay deals with T3, MSSK1/STK23 (Homo sapiens, UniProt Q9UPE1).
T3 construct: purchased Reaction Biology Corp
T3 sequence (Q9UPE1 whole entry): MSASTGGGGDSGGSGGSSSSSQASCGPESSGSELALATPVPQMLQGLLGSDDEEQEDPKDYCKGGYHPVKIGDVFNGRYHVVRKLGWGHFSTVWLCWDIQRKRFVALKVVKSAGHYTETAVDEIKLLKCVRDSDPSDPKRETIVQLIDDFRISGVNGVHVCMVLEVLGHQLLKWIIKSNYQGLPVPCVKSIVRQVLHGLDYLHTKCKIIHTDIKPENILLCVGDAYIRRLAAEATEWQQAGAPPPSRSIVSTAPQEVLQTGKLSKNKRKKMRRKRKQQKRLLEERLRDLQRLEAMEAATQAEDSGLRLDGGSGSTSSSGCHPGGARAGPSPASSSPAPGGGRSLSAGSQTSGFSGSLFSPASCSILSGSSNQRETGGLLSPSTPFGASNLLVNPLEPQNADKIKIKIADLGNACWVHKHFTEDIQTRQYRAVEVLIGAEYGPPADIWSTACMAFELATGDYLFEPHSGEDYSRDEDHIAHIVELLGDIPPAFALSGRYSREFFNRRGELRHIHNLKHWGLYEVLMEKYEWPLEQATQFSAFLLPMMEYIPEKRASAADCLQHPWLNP
The essentials: as §1

A further assay has as its target T4, PASK (Homo sapiens, UniProt Q96RG2).
T4 construct: purchased Reaction Biology Corp
The essentials:
as §1

A further assay addresses T5, ERK7/MAPK15 (Homo sapiens, UniProt Q8TD08).
T5 construct: purchased Reaction Biology Corp
T5 sequence (Q8TD08 1-544): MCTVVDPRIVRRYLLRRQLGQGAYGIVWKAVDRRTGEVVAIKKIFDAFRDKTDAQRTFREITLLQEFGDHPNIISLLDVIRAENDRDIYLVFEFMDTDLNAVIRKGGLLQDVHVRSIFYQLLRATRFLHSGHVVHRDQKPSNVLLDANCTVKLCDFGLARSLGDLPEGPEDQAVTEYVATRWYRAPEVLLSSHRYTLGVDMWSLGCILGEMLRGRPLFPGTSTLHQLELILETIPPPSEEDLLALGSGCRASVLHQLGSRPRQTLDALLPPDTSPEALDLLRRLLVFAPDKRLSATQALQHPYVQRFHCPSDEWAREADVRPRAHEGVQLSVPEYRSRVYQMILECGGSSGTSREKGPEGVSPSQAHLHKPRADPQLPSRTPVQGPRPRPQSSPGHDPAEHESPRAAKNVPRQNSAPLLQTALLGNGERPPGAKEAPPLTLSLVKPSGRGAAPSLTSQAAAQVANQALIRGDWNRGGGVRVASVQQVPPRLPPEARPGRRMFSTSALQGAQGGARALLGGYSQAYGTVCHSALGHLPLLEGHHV
The essentials:
as §1

The target in a further assay is T6, EPHA4 (Homo sapiens, UniProt P54764).
T6 construct: purchased Reaction Biology Corp
T6 sequence (P54764 20-986): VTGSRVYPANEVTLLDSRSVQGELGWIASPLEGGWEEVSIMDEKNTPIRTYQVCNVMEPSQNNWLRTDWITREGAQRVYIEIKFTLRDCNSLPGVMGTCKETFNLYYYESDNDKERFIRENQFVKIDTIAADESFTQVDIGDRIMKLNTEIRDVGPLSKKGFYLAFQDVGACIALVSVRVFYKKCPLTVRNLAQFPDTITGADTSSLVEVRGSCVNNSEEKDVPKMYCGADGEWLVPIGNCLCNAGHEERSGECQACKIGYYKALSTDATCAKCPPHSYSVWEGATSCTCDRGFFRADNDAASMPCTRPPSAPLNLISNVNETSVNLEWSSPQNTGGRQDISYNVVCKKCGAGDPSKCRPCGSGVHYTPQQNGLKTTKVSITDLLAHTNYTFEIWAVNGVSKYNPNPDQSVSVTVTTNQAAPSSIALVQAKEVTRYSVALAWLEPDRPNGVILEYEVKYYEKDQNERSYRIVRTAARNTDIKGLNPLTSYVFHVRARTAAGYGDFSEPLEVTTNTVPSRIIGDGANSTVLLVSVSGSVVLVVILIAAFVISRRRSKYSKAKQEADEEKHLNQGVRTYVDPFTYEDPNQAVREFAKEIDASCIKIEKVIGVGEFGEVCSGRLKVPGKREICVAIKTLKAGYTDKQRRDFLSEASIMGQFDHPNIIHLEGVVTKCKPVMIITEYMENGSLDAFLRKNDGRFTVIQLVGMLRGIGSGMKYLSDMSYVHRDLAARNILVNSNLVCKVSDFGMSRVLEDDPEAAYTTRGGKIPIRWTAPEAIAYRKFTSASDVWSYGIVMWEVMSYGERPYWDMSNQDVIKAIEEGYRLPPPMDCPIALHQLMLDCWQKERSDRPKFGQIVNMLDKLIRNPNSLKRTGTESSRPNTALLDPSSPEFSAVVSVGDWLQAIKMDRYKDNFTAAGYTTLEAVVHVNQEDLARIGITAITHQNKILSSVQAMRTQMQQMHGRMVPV
The essentials: as §1

The target of a further assay is T7, SRMS (Homo sapiens, UniProt Q9H3Y6).
T7 construct: purchased Reaction Biology Corp
T7 sequence (Q9H3Y6 whole entry): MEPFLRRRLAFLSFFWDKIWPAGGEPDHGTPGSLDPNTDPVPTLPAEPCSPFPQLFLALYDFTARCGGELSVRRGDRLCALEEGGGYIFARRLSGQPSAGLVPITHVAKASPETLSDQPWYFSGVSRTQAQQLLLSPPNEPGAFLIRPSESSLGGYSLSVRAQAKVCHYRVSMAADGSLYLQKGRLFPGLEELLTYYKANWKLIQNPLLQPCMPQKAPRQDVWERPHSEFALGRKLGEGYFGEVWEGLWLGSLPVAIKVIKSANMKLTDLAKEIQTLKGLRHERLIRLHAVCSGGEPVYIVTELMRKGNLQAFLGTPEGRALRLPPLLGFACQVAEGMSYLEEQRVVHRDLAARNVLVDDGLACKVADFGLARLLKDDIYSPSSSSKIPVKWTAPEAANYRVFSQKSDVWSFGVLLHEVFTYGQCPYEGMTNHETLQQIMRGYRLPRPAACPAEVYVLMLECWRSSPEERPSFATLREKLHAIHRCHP
The essentials:
as §1

The target of another assay is T8, DCAMKL2 (Homo sapiens, UniProt Q8N568).
T8 construct: purchased Reaction Biology Corp
T8 sequence (Q8N568 1-766): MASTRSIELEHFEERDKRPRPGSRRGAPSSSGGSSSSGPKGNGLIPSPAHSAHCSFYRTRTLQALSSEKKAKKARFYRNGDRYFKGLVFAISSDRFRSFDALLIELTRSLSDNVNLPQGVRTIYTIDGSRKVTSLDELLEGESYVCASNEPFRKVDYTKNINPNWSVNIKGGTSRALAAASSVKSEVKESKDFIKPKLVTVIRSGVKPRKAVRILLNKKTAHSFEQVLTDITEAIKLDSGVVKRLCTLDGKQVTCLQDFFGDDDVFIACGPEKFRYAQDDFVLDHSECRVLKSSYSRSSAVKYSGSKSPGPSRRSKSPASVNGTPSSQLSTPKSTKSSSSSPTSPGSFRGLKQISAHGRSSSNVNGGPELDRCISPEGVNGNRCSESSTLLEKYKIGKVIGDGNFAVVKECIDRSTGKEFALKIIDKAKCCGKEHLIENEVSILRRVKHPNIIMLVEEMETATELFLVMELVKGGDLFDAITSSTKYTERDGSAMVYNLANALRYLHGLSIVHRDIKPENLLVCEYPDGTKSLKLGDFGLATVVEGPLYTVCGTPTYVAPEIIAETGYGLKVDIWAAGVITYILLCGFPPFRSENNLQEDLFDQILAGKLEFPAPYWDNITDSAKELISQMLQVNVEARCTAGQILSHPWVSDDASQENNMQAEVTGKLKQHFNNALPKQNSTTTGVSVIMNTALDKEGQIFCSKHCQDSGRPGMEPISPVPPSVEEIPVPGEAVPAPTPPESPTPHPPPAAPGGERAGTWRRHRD
Put shortly: as §1

Setting [1] is: read-out: % Enzyme Activity (relative to DMSO controls) AVG.
The mark [2] stands for this setting: read-out: % Enzyme Activity (relative to DMSO controls) Data 1.
[3] abbreviates: read-out: % Enzyme Activity (relative to DMSO controls) Data 2.

T4 sequence (Q96RG2 whole entry): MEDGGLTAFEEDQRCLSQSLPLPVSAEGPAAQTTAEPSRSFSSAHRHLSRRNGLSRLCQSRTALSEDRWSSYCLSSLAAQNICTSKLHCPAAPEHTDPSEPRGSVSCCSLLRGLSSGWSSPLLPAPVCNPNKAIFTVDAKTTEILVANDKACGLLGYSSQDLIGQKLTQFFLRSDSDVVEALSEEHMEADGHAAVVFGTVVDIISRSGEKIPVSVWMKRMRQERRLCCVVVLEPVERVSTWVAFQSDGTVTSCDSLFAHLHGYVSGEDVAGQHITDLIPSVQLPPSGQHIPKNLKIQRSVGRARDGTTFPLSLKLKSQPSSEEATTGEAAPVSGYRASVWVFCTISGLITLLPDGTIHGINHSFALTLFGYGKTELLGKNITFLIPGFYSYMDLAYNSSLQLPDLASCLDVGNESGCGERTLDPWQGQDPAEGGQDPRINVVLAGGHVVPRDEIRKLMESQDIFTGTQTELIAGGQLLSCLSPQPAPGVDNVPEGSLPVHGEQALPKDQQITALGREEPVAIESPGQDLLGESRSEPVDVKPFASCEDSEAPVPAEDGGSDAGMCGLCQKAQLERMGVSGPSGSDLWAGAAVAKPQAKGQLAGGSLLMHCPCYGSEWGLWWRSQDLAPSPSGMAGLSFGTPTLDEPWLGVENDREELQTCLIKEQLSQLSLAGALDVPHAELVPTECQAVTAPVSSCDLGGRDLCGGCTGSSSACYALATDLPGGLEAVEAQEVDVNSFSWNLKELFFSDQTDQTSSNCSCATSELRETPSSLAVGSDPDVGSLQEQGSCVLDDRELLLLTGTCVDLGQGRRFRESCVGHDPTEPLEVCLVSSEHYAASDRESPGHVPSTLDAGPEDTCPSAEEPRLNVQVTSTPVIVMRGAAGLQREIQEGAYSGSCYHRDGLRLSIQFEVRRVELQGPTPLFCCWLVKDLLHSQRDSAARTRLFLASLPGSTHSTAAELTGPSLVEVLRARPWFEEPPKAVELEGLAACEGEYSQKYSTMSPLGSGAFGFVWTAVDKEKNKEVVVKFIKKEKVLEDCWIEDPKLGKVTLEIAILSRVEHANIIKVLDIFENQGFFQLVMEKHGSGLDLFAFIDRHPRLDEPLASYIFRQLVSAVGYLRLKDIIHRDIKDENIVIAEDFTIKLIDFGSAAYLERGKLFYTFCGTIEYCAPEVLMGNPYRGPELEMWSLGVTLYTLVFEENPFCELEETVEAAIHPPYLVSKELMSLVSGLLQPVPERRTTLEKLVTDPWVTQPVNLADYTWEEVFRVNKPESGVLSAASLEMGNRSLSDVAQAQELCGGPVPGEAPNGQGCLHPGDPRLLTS
T2 sequence (P34947 whole entry): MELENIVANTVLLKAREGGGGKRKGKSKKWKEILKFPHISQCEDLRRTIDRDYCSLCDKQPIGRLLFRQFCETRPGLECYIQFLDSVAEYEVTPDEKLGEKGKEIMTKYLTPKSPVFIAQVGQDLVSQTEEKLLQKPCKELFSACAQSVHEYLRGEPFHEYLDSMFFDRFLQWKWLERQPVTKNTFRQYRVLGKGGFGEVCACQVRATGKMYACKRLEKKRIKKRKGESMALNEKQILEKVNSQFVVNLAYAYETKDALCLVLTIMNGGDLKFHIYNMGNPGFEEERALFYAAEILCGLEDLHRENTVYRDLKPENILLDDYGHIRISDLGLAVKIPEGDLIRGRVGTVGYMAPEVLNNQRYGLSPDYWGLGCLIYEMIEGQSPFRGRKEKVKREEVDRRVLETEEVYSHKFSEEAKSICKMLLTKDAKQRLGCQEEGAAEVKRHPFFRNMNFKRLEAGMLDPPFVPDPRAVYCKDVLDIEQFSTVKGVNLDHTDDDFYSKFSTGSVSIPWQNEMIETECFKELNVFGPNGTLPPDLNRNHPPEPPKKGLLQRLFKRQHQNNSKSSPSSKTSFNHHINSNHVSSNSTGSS

On to `CC(C)(C)C(=O)N1N=CC[C@H]1c1ccccc1` [GSK′963], for which the remaining activity at 10 µM worked out at 94.8% on c-MER (setting [1]); 94.5% at c-MER (setting [2]); 95.1% at c-MER (setting [3]); 99.4% on GRK5 (setting [1]); 98.2% at GRK5 (setting [2]); 101% at GRK5 (setting [3]). Moreover, the remaining activity at 10 µM on MSSK1/STK23 (setting [1]) was 107%; on MSSK1/STK23 (setting [2]), 108%; at MSSK1/STK23 (setting [3]), 105%; at PASK (setting [1]), 102%; at PASK (setting [2]), 103%; at PASK (setting [3]), 101%. Further, the remaining activity at 10 µM at ERK7/MAPK15 (setting [1]) came out at 112%; at ERK7/MAPK15 (setting [2]) it was 113%; on ERK7/MAPK15 (setting [3]) it was 111%; on EPHA4 (setting [1]) it was 99.2%; on EPHA4 (setting [2]) it was 99.2%; at EPHA4 (setting [3]) it was 99.2%. Also, the remaining activity at 10 µM on SRMS (setting [1]) turned out to be 101%; at SRMS (setting [2]), 98.6%; on SRMS (setting [3]), 103%; at DCAMKL2 (setting [1]), 101%; on DCAMKL2 (setting [2]) it was 100%; at DCAMKL2 (setting [3]), 102%.
